These results are taken from patent US20140249139A1, “Quinazoline Derivatives” (NOVARTIS AG, priority 2011, published 2014).

SMILES strings stand for the structures.

The target in one test is T1, PI3K alpha (Homo sapiens, UniProt P42336).
T1 construct: for the p110-a subunit (with a deletion of the first 20 amino acids) are generated; His tag (C); made in house; host or cells: baculovirus BV1075; Tn5 (Trichoplusia ni) or TiniPro insect cells
Put plainly: Enzymatic PI3K alpha isoform inhibition (lipid kinase activity, Kinase-Glo). In kind it is biochemical. The conditions noted are these: enzymatic assay. How it is done:
(§1) The components of the assay are added per well as follows:
(§2) IC50 is determined by a four parameter curve fitting routine that comes along with “excel fit”.
(§3) Yet alternatively, for an ATP depletion assay, compounds of the formula I to be tested are dissolved in DMSO and directly distributed into a white 384-well plate at 0.5 μl per well. To start the reaction, 10 μl of 10 nM PI3 kinase and 5 μg/ml 1-alpha-phosphatidylinositol (PI) are added into each well followed by 10 μl of 2 μM ATP. The reaction is performed until approx 50% of the ATP is depleted, and then stopped by the addition of 20 μl of Kinase-Glo solution (Promega Corp., Madison, Wis., USA). The stopped reaction is incubated for 5 minutes and the remaining ATP is then detected via luminescence. IC50 values are then determined.
On the technique in general: Kinase-Glo measures the ATP left after a reaction by luminescence.

The next test deals with T2, PI3K delta (Homo sapiens, UniProt O00329).
T2 construct: for the full-length p110-d subunit are generated and fused by overlapping PCR; His tag (C); made in house; host or cells: baculovirus BV1060; Tn5 (Trichoplusia ni) or TiniPro insect cells
T2 sequence (O00329 with tags, fused parts or gaps limits assumed, species assumed): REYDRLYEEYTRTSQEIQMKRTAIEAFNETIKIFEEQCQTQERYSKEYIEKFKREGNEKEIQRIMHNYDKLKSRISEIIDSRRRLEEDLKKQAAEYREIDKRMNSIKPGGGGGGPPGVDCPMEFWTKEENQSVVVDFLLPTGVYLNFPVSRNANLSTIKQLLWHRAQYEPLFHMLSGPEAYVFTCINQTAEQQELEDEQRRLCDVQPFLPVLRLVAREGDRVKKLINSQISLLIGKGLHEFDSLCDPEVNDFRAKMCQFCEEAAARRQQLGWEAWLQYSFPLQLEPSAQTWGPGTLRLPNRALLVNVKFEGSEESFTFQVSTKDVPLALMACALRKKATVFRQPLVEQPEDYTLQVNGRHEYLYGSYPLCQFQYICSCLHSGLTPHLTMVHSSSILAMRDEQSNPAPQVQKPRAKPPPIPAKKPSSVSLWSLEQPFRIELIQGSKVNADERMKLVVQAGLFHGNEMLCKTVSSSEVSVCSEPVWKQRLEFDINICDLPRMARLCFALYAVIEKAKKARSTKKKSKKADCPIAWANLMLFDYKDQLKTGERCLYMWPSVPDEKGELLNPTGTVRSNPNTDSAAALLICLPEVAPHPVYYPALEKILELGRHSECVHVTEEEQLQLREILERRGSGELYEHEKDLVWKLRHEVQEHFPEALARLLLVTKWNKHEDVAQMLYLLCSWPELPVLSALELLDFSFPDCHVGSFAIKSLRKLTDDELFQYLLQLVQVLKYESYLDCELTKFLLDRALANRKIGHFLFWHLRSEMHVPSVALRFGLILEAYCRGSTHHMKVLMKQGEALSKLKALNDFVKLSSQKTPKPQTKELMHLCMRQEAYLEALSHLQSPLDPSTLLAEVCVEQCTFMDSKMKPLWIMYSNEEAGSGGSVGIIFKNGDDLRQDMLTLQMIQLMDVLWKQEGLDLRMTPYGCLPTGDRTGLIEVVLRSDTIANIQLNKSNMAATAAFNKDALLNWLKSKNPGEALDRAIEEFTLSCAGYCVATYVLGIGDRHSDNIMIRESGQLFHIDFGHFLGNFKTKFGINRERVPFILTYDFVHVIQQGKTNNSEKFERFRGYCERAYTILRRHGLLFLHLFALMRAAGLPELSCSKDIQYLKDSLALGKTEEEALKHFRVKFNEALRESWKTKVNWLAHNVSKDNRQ
Briefly: Enzymatic PI3K delta isoform inhibition (lipid kinase activity, Kinase-Glo). In kind it is biochemical. The settings on record: enzymatic assay. On the procedure:
as §1, §2, §3

T1 sequence (P42336 with tags, fused parts or gaps limits assumed, species assumed): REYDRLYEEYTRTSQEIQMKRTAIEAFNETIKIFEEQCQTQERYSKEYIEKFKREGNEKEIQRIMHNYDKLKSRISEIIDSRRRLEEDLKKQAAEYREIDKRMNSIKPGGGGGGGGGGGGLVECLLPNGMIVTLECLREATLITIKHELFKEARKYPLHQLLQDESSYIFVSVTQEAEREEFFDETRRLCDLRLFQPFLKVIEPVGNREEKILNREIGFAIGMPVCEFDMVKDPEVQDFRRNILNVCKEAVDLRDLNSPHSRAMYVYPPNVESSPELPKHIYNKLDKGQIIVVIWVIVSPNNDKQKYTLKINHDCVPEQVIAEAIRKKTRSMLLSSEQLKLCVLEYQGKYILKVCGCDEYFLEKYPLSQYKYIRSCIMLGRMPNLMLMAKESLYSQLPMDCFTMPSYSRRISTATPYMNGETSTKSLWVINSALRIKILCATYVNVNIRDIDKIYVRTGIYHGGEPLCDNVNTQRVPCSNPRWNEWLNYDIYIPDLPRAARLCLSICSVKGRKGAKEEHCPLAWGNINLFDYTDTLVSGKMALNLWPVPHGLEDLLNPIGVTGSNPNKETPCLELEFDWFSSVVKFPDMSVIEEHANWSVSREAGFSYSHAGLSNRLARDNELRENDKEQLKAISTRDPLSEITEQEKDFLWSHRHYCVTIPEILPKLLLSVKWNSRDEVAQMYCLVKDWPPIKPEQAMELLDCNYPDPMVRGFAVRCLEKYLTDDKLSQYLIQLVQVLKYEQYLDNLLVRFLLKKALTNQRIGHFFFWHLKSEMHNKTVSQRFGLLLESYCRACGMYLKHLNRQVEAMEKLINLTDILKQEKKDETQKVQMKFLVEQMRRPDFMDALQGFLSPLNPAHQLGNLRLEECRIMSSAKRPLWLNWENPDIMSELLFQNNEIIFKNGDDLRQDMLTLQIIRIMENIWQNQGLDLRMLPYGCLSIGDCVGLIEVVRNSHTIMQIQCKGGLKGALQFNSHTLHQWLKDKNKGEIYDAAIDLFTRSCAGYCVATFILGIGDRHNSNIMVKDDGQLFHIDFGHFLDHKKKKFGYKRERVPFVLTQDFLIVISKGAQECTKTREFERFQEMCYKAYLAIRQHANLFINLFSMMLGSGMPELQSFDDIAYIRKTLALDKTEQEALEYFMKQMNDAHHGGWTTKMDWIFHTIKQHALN

Usually IC50 stands for the concentration needed to halve the response being measured. Low values mean greater potency in that assay, high ones weaker potency in that assay. Regarding `COc1ncc(-c2ccc3ncnc(-c4cccc(C(=O)N5CCN(C(C)=O)CC5)c4)c3c2)cc1F` [Example 3], the IC50 at PI3K alpha was 62 nM; at PI3K delta, < 3 nM.
Taken in the same sequence, the figures for `COc1ncc(-c2ccc3ncnc(-c4cccc(C(=O)N5CCN(C(C)=O)CC5)c4)c3c2)cn1` [Example 4] were 1160 nM and 9 nM.
On the same counts, the results for `CCOc1ncc(-c2ccc3ncnc(-c4cccc(C(=O)N5CCN(C(C)=O)CC5)c4)c3c2)cn1` [Example 5] are 1320 nM and 8.5 nM.
Turning to `CC(=O)N1CCN(C(=O)c2cccc(-c3ncnc4ccc(-c5cnc(N)nc5)cc34)c2)CC1` [Example 8], the values for the IC50 at PI3K alpha and on PI3K delta were 268 nM and 9.5 nM, respectively.
On the same counts, the results for `CC(=O)N1CCN(C(=O)c2cccc(-c3ncnc4ccc(-c5cc(C#N)c(N)c(C(F)(F)F)c5)cc34)c2)CC1` [Example 10] are > 9100 nM and 27 nM.
Turning to `CN1CCN(C(=O)c2cccc(-c3ncnc4ccc(-c5cnc(N(C)C)nc5)cc34)c2)CC1` [Example 11], the IC50 came to 1070 nM at PI3K alpha and 28 nM against PI3K delta.
As for `CN1CCN(C(=O)c2cccc(-c3ncnc4ccc(-c5ccc(OC(F)F)nc5)cc34)c2)CC1` [Example 13], the IC50 at PI3K alpha is 1330 nM; against PI3K delta, 34 nM.
On the same counts, the results for `CN1CCN(C(=O)c2cccc(-c3ncnc4ccc(-c5ccc(N6CCCC6)nc5)cc34)c2)CC1` [Example 15] are 1230 nM and 17 nM.
On the same counts, the results for `CCOc1ccc(-c2ccc3ncnc(-c4cccc(C(=O)N5CCN(C)CC5)c4)c3c2)cn1` [Example 16] are 695 nM and 12.5 nM.
Taken in the same sequence, the figures for `CN1CCN(C(=O)c2cccc(-c3ncnc4ccc(-c5ccc(N(C)C)nc5)cc34)c2)CC1` [Example 17] were 352 nM and 6.38 nM.
As for `CN1CCN(C(=O)c2cccc(-c3ncnc4ccc(-c5ccc(N6CCNCC6)nc5)cc34)c2)CC1` [Example 18], the IC50 against PI3K alpha amounted to 1290 nM; on PI3K delta it was 42.1 nM.
As for `COc1ccc(-c2ccc3ncnc(-c4cccc(C(=O)N5CCN(C)CC5)c4)c3c2)cc1C(F)(F)F` [Example 20], the IC50 against PI3K alpha was 2480 nM; against PI3K delta, 24 nM.
For the molecule `COc1ccc(-c2ccc3ncnc(-c4cccc(C(=O)N5CCN(C)CC5)c4)c3c2)cc1S(=O)(=O)N1CCOCC1` [Example 21], the results for the IC50 against PI3K alpha and on PI3K delta were 2270 nM and 14.5 nM, respectively.
For the molecule `CCN(CC)S(=O)(=O)c1cc(-c2ccc3ncnc(-c4cccc(C(=O)N5CCN(C)CC5)c4)c3c2)ccc1OC` [Example 23], the figures for the IC50 on PI3K alpha and on PI3K delta were 931 nM and 12.5 nM, respectively.
Taken in the same sequence, the figures for `CN1CCN(C(=O)c2cccc(-c3ncnc4ccc(-c5cncc(S(C)(=O)=O)c5)cc34)c2)CC1` [Example 24] were 400 nM and 15 nM.
On the same counts, the results for `CN1CCN(C(=O)c2cccc(-c3ncnc4ccc(-c5ccc(N)nc5)cc34)c2)CC1` [Example 25] are 184 nM and 7 nM.
Consider `COc1ncc(-c2ccc3ncnc(-c4cccc(C(=O)N5CCN(C)C(C)(C)C5)c4)c3c2)cn1` [Example 26], for which the IC50 at PI3K alpha came to 614 nM; against PI3K delta, 17.8 nM.
Take `CCOc1ccc(-c2ccc3ncnc(-c4cccc(C(=O)N5CCN(C)C(C)(C)C5)c4)c3c2)cn1` [Example 27]: the IC50 against PI3K alpha worked out at 404 nM; on PI3K delta, 18.5 nM.
On the same counts, the results for `COc1ncc(-c2ccc3ncnc(-c4cccc(C(=O)N5CCS(=O)(=O)CC5)c4)c3c2)cc1C#N` [Example 28] are 418 nM and 9 nM.
Taken in the same sequence, the figures for `COc1ncc(-c2ccc3ncnc(-c4cccc(C(=O)N5C[C@@H]6C[C@H]5CN6C)c4)c3c2)cc1C(F)(F)F` [Example 29] were 75 nM and 3 nM.
Taken in the same sequence, the figures for `COc1ncc(-c2ccc3ncnc(-c4cccc(C(=O)N5CCOCC5)c4)c3c2)cc1C#N` [Example 30] were 387 nM and 6.67 nM.
Take `COc1ncc(-c2ccc3ncnc(-c4cccc(C(=O)N5CCOC(C)(C)C5)c4)c3c2)cc1C#N` [Example 31]: the results for the IC50 against PI3K alpha and against PI3K delta were 631 nM and 6 nM, respectively.
On to `CC1(C)CN(C(=O)c2cccc(-c3ncnc4ccc(-c5ccc(N)nc5)cc34)c2)CCO1` [Example 32], for which the IC50 on PI3K alpha was 174 nM; against PI3K delta, 7 nM.
Turning to `COc1ncc(-c2ccc3ncnc(-c4cccc(C(=O)N5CCOC(C)(C)C5)c4)c3c2)cn1` [Example 33], the IC50 against PI3K alpha amounted to 639 nM; against PI3K delta, 12 nM.
Take `COc1ncc(-c2ccc3ncnc(-c4cccc(C(=O)N5CCN[C@H](C)C5)c4)c3c2)cc1C#N` [Example 34, 2-Methoxy-5-{4-[3-((R)-3-methyl-piperazine-1-carbonyl)-phenyl]-quinazolin-6-yl}-nicotinonitrile]: the IC50 was 488 nM against PI3K alpha and 22.5 nM on PI3K delta.
Turning to `COc1ncc(-c2ccc3ncnc(-c4cccc(C(=O)N5CCNCC5)c4)c3c2)cc1C#N` [Example 35], the values for the IC50 at PI3K alpha and against PI3K delta were 262 nM and 7 nM, respectively.
As to `COc1ccc(-c2ccc3ncnc(-c4cccc(C(=O)N5CCN(C(C)=O)C(C)(C)C5)c4)c3c2)cn1` [Example 36, 1-(4-{3-[6-(6-Methoxy-pyridin-3-yl)-quinazolin-4-yl]-benzoyl}-2,2-dimethyl-piperazin-1-yl)-ethanone], the IC50 against PI3K alpha was 217 nM; on PI3K delta, 4.5 nM.
Taken in the same sequence, the figures for `COc1ncc(-c2ccc3ncnc(-c4cccc(C(=O)N5CCN(C(C)=O)C(C)(C)C5)c4)c3c2)cc1C#N` [Example 37] were 426 nM and 4 nM.
Taken in the same sequence, the figures for `COc1ccc(-c2ccc3ncnc(-c4cccc(C(=O)N5CC6CC5CN6)c4)c3c2)cn1` (stereo not shown) [Example 38, (2,5-Diaza-bicyclo[2.2.1]hept-2-yl)-{3-[6-(6-methoxy-pyridin-3-yl)-quinazolin-4-yl]-phenyl}-methanone] were 372 nM and 7 nM.
On the same counts, the results for `COc1ccc(-c2ccc3ncnc(-c4cccc(C(=O)N5C[C@@H]6C[C@H]5CN6)c4)c3c2)cc1C(F)(F)F` [Example 39] are 770 nM and 11.5 nM.
Consider `CNc1ncc(-c2ccc3ncnc(-c4cccc(C(=O)N5CCN(C)CC5)c4)c3c2)cc1C` [Example 40, {3-[6-(5-Methyl-6-methylamino-pyridin-3-yl)-quinazolin-4-yl]-phenyl}-(4-methyl-piperazin-1-yl)-methanone], for which the IC50 against PI3K alpha came to 270 nM; against PI3K delta it was 3 nM.
As to `CNc1ccc(-c2ccc3ncnc(-c4cccc(C(=O)N5CCN(C)CC5)c4)c3c2)cn1` [Example 41], the IC50 amounted to 708 nM against PI3K alpha and 20.5 nM against PI3K delta.
For `CCOc1ncc(-c2ccc3ncnc(-c4cccc(C(=O)N5CCN(C)CC5)c4)c3c2)cc1C(F)(F)F` [Example 42, {3-[6-(6-Ethoxy-5-trifluoromethyl-pyridin-3-yl)-quinazolin-4-yl]-phenyl}-(4-methyl-piperazin-1-yl)-methanone], the IC50 is 152 nM against PI3K alpha and 6 nM against PI3K delta.
For the molecule `Cc1ccc(-c2ccc3ncnc(-c4cccc(C(=O)N5CCN(C)CC5)c4)c3c2)cc1S(C)(=O)=O` [Example 43], the 50% inhibitory concentration (IC50) on PI3K alpha was 374 nM; against PI3K delta, 11 nM.
Consider `COc1ccc(-c2ccc3ncnc(-c4cccc(C(=O)N5CCN(C)CC5)c4)c3c2)cc1C#N` [Example 45], for which the figures for the IC50 against PI3K alpha and against PI3K delta were 1200 nM and 36.5 nM, respectively.
